# Laboratory results published in patent US9492460B2, “Carbazole compounds useful as bromodomain inhibitors” (Bristol-Myers Squibb Company, priority 2013, dated 2016).
# pIC50: −log10 of the molar value.
# Target: T1, bromodomain BRD4 (44-168), BRD4 (333-460), and BRD4 (1-477 or 44-460) (Homo sapiens, UniProt O60885)
# T1 construct: BRD4(44-168), BRD4(333-460), BRD4(44-460), BRD4(1-477), O60885-1; fused on or other part: N-terminal BirA biotinylation motif, biotinylated; The TVMV-cleavable His6 tag is removed, except in some BRD4(44-460) runs detected with anti-His terbium cryptate
# Assay: Time Resolved Fluorescence Resonance Energy Transfer (TR-FRET) binding assay
# Conditions: one of the FRET assays described
row,pIC50,SMILES
1,> 7.30,"CCNC(=O)c1cc(-c2c(C)noc2C)cc2c1c1cc(C(=O)N3CC(F)C3)ccc1n2Cc1ccc(F)cc1 [Example 126, 2-(3,5-dimethyl-4-isoxazolyl)-N-ethyl-6-((3-fluoro-1-azetidinyl)carbonyl)-9-(4-fluorobenzyl)-9H-carbazole-4-carboxamide]"
2,> 5.12,"Cc1noc(C)c1-c1cc(C(=O)NC(C)C)c2c3cc(C(=O)N4CC(F)C4)ccc3n(Cc3ccc(F)cc3)c2c1 [Example 127, 2-(3,5-dimethyl-4-isoxazolyl)-6-((3-fluoro-1-azetidinyl)carbonyl)-9-(4-fluorobenzyl)-N-isopropyl-9H-carbazole-4-carboxamide]"
3,> 6.30,"Cc1noc(C)c1-c1cc(C(=O)NCC(C)C)c2c3cc(C(=O)N4CC(F)C4)ccc3n(Cc3ccc(F)cc3)c2c1 [Example 128, 2-(3,5-dimethyl-4-isoxazolyl)-6-((3-fluoro-1-azetidinyl)carbonyl)-9-(4-fluorobenzyl)-N-isobutyl-9H-carbazole-4-carboxamide]"
4,> 6.30,"Cc1noc(C)c1-c1cc(C(=O)N2CC(F)C2)c2c3cc(C(=O)N4CC(F)C4)ccc3n(Cc3ccc(F)cc3)c2c1 [Example 129, 2-(3,5-dimethyl-4-isoxazolyl)-4,6-bis((3-fluoro-1-azetidinyl)carbonyl)-9-(4-fluorobenzyl)-9H-carbazole]"
5,> 7.30,"CNc1ccc2c(c1)c1c(C(N)=O)cc(-c3c(C)noc3C)cc1n2Cc1ccccc1 [Example 130, 9-Benzyl-2-(3,5-dimethyl-4-isoxazolyl)-6-(methylamino)-9H-carbazole-4-carboxamide]"
6,> 7.30,"CC(=O)N(C)c1ccc2c(c1)c1c(C(N)=O)cc(-c3c(C)noc3C)cc1n2Cc1ccccc1 [Example 131, 9-benzyl-2-(3,5-dimethylisoxazol-4-yl)-6-(N-methylacetamido)-9H-carbazole-4-carboxamide]"
7,> 7.30,"CNC(=O)c1cc(-c2c(C)noc2C)cc2c1c1cc(N(C)C(C)=O)ccc1n2Cc1ccccc1 [Example 132, 6-(acetyl(methyl)amino)-9-benzyl-2-(3,5-dimethyl-4-isoxazolyl)-N-methyl-9H-carbazole-4-carboxamide]"
8,> 7.30,"CNC(=O)c1cc(-c2c(C)noc2C)cc2c1c1cc(NC)ccc1n2Cc1ccccc1 [Example 133, 9-benzyl-2-(3,5-dimethyl-4-isoxazolyl)-N-methyl-6-(methylamino)-9H-carbazole-4-carboxamide]"
9,> 7.30,"CC(=O)N(CCF)c1ccc2c(c1)c1c(C(N)=O)cc(-c3c(C)noc3C)cc1n2Cc1ccccc1 [Example 134, 6-(acetyl(2-fluoroethyl)amino)-9-benzyl-2-(3,5-dimethyl-4-isoxazolyl)-9H-carbazole-4-carboxamide]"
10,> 7.30,"Cc1noc(C)c1-c1cc(C(N)=O)c2c3cc(N)ccc3n(Cc3ccccc3)c2c1 [Example 135, 6-amino-9-benzyl-2-(3,5-dimethyl-4-isoxazolyl)-9H-carbazole-4-carboxamide]"
11,> 7.30,"Cc1noc(C)c1-c1cc(C(N)=O)c2c3cc(NCCF)ccc3n(Cc3ccccc3)c2c1 [Example 136, 9-benzyl-2-(3,5-dimethyl-4-isoxazolyl)-6-(2-fluoroethylamino)-9H-carbazole-4-carboxamide]"
12,> 7.30,"Cc1noc(C)c1-c1cc(C(N)=O)c2c3cc(NCCO)ccc3n(Cc3ccccc3)c2c1 [Example 137, 9-benzyl-2-(3,5-dimethyl-4-isoxazolyl)-6-((2-hydroxyethyl)amino)-9H-carbazole-4-carboxamide]"
13,> 7.30,"Cc1noc(C)c1-c1cc(C(N)=O)c2c3cc(NCC#N)ccc3n(Cc3ccccc3)c2c1 [Example 138, 9-benzyl-6-((cyanomethyl)amino)-2-(3,5-dimethyl-4-isoxazolyl)-9H-carbazole-4-carboxamide]"
14,> 7.30,"Cc1noc(C)c1-c1cc(C(N)=O)c2c3cc(NCC(F)F)ccc3n(Cc3ccccc3)c2c1 [Example 139, 9-benzyl-6-((2,2-difluoroethyl)amino)-2-(3,5-dimethyl-4-isoxazolyl)-9H-carbazole-4-carboxamide]"
15,> 7.30,"Cc1noc(C)c1-c1cc(C(N)=O)c2c3cc(N(CCO)CCO)ccc3n(Cc3ccccc3)c2c1 [Example 140, 9-benzyl-6-(bis(2-hydroxyethyl)amino)-2-(3,5-dimethyl-4-isoxazolyl)-9H-carbazole-4-carboxamide]"
16,> 7.30,"CNC(=O)c1cc(-c2c(C)noc2C)cc2c1c1cc(N(C)C)ccc1n2Cc1ccccc1 [Example 141, 9-benzyl-6-(dimethylamino)-2-(3,5-dimethyl-4-isoxazolyl)-N-methyl-9H-carbazole-4-carboxamide]"
17,> 7.30,"CC(=O)Nc1ccc2c(c1)c1c(C(N)=O)cc(-c3c(C)noc3C)cc1n2Cc1ccccc1 [Example 142, 6-acetamido-9-benzyl-2-(3,5-dimethyl-4-isoxazolyl)-9H-carbazole-4-carboxamide]"

row,pIC50,SMILES
1,> 7.30,"Cc1noc(C)c1-c1cc(C(N)=O)c2c3cc(NS(C)(=O)=O)ccc3n(Cc3ccccc3)c2c1 [Example 143, 9-benzyl-2-(3,5-dimethyl-4-isoxazolyl)-6-(methylsulfonamido)-9H-carbazole-4-carboxamide]"
2,> 7.30,"COC(=O)Nc1ccc2c(c1)c1c(C(N)=O)cc(-c3c(C)noc3C)cc1n2Cc1ccccc1 [Example 144, methyl (9-benzyl-5-carbamoyl-7-(3,5-dimethyl-4-isoxazolyl)-9H-carbazol-3-yl)carbamate]"
3,> 7.30,"Cc1noc(C)c1-c1cc(C(N)=O)c2c3cc(NC(=O)C4CCOCC4)ccc3n(Cc3ccccc3)c2c1 [Example 145, 9-benzyl-2-(3,5-dimethyl-4-isoxazolyl)-6-((tetrahydro-2H-pyran-4-ylcarbonyl)amino)-9H-carbazole-4-carboxamide]"
4,> 7.30,"Cc1noc(C)c1-c1cc(C(N)=O)c2c3cc(NC(=O)N4CCOCC4)ccc3n(Cc3ccccc3)c2c1 [Example 146, 9-benzyl-2-(3,5-dimethyl-4-isoxazolyl)-6-((4-morpholinylcarbonyl)amino)-9H-carbazole-4-carboxamide]"
5,> 7.30,"Cc1noc(C)c1-c1cc(C(N)=O)c2c3cc(NC(=O)N(C)C)ccc3n(Cc3ccccc3)c2c1 [Example 147, 9-benzyl-6-((dimethylcarbamoyl)amino)-2-(3,5-dimethyl-4-isoxazolyl)-9H-carbazole-4-carboxamide]"
6,> 7.30,"CNC(=O)Nc1ccc2c(c1)c1c(C(N)=O)cc(-c3c(C)noc3C)cc1n2Cc1ccccc1 [Example 148, 9-benzyl-2-(3,5-dimethyl-4-isoxazolyl)-6-((methylcarbamoyl)amino)-9H-carbazole-4-carboxamide]"
7,> 7.30,"Cc1noc(C)c1-c1cc(C(N)=O)c2c3cc(NC(=O)C4CCCC4)ccc3n(Cc3ccccc3)c2c1 [Example 149, 9-benzyl-6-((cyclopentylcarbonyl)amino)-2-(3,5-dimethyl-4-isoxazolyl)-9H-carbazole-4-carboxamide]"
8,> 6.30,"Cc1noc(C)c1-c1cc(C(N)=O)c2c(c1)[nH]c1ccc(N3CCCOC3=O)cc12 [Example 150, 2-(3,5-dimethyl-4-isoxazolyl)-6-(2-oxo-1,3-oxazinan-3-yl)-9H-carbazole-4-carboxamide]"
9,> 7.30,"Cc1noc(C)c1-c1cc(C(N)=O)c2c3cc(N4CCCOC4=O)ccc3n(Cc3ccc(F)cc3)c2c1 [Example 151, 2-(3,5-dimethyl-4-isoxazolyl)-9-(4-fluorobenzyl)-6-(2-oxo-1,3-oxazinan-3-yl)-9H-carbazole-4-carboxamide]"
10,> 7.30,"Cc1noc(C)c1-c1cc(C(N)=O)c2c3cc(N4CCOC4=O)ccc3n(Cc3ccc(F)cc3)c2c1 [Example 152, 2-(3,5-dimethyl-4-isoxazolyl)-9-(4-fluorobenzyl)-6-(2-oxo-1,3-oxazolidin-3-yl)-9H-carbazole-4-carboxamide]"
11,> 7.30,"Cc1noc(C)c1-c1cc(C(N)=O)c2c3cc(N4CC(C)(C)COC4=O)ccc3n(Cc3ccc(F)cc3)c2c1 [Example 153, 2-(3,5-dimethyl-4-isoxazolyl)-6-(5,5-dimethyl-2-oxo-1,3-oxazinan-3-yl)-9-(4-fluorobenzyl)-9H-carbazole-4-carboxamide]"
12,> 5.12,"CCNC(=O)c1cc(-c2c(C)noc2C)cc2[nH]c3ccc(N4CCCOC4=O)cc3c12 [Example 154, 2-(3,5-dimethyl-4-isoxazolyl)-N-ethyl-6-(2-oxo-1,3-oxazinan-3-yl)-9H-carbazole-4-carboxamide]"
13,> 5.12,"CCNC(=O)c1cc(-c2c(C)noc2C)cc2c1c1cc(N3CCCOC3=O)ccc1n2Cc1ccc(F)cc1 [Example 155, 2-(3,5-dimethyl-4-isoxazolyl)-N-ethyl-9-(4-fluorobenzyl)-6-(2-oxo-1,3-oxazinan-3-yl)-9H-carbazole-4-carboxamide]"
14,> 7.30,"Cc1noc(C)c1-c1cc(C(N)=O)c2c3cc(N4CCCOC4=O)ccc3n(Cc3ccccc3)c2c1 [Example 156, 9-benzyl-2-(3,5-dimethyl-4-isoxazolyl)-6-(2-oxo-1,3-oxazinan-3-yl)-9H-carbazole-4-carboxamide]"
15,> 7.30,"Cc1noc(C)c1-c1cc(C(N)=O)c2c3cc(N4CCCOC4=O)ccc3n(Cc3ccc(Cl)cc3)c2c1 [Example 157, 9-(4-chlorobenzyl)-2-(3,5-dimethyl-4-isoxazolyl)-6-(2-oxo-1,3-oxazinan-3-yl)-9H-carbazole-4-carboxamide]"
16,> 7.30,"Cc1noc(C)c1-c1cc(C(N)=O)c2c3cc(N4CCCOC4=O)ccc3n(C(C)c3ccccc3)c2c1 (stereo not shown) [Example 158, 2-(3,5-dimethyl-4-isoxazolyl)-6-(2-oxo-1,3-oxazinan-3-yl)-9-(1-phenylethyl)-9H-carbazole-4-carboxamide]"
17,> 7.30,"Cc1noc(C)c1-c1cc(C(N)=O)c2c3cc(N4CCCOC4=O)ccc3n(Cc3cc(F)ccc3F)c2c1 [Example 159, 9-(2,5-difluorobenzyl)-2-(3,5-dimethyl-4-isoxazolyl)-6-(2-oxo-1,3-oxazinan-3-yl)-9H-carbazole-4-carboxamide]"
